Data: patent US20150087037A1, “FERMENTATION PROCESS” (LanzaTech New Zealand Limited, priority 2013, published 2015)

Assays:
[1] = system: C. autoethanogenum DSM23693; assay: Single reactor fermentation optimised for 2,3-BDO production, single 2-HIBA addition (Example 1); assay type: cell-based, Clostridium autoethanogenum
Method: Fermentations with C. autoethanogenum DSM23693 were carried out in 1.5 L bioreactors at 37° C. The media was prepared according to Table 1. To achieve anaerobicity the reactor vessel was sparged with nitrogen. Prior to inoculation, the gas was switched to either steel mill gas containing H2 (3%), N2 (30%), CO (47%) and CO2 (20%) or pure gases (50% CO, 18-40% CO2, with the balance N2). The gas flow was initially set at 67 ml/min/L, increasing to 200 ml/min during mid-exponential phase, while the agitation was increased from 200 rpm to 800. Na2S was dosed into the bioreactor at 0.25 ml/hr. Once the OD600 reached 1.5, the bioreactor was switched to a continuous mode at a dilution rate of 2.0-1.6 d-l and a bacterial dilution rate of 0.9-0.6 d-l. During continuous mode gas and agitation were adjusted to 900-950 rpm and 800-900 ml/min. Na2S was increased to 1.0 ml/hr.
Liquid culture samples were taken at differing intervals over the duration of the fermentation. These samples were used to establish the optical density at 600 nm (spectrophotometer) and the level of substrates and products (high performance liquid chromatography—HPLC). HPLC was routinely used to quantify the level of acetate, ethanol and 2,3-butanediol. The input and output gas compositions were analysed using a gas chromatographer (GC), allowing measurement of CO and H2 consumption and CO2 production by the culture.
The impacts of 2-HIBA were investigated on a single reactor system which had been optimised for 2,3-BDO production. This was done to ascertain the impact that this chemical would have on a high performance system and obtain information on suitable concentrations that would not interfere with overall fermentation stability.
The 2,3-BDO concentration increased from 6 g/L to 12 g/L dropping the ratio from 4:1 to as low as 1.4:1. […] The concentration of 2-HIBA was monitored in the reactor liquid outflow. […] The 2-HIBA washes out of the fermenter according to the bacterial dilution rate.

[2] = system: LZ1561; assay: Differential gene expression analysis before and after 2-HIBA addition (Example 6); assay type: cell-based, Clostridium autoethanogenum
From the text: In order to understand the impact of 2-HIBA on the metabolism of LZ1561 samples were taken for gene expression analysis. A reactor was started up as a batch and after 1 day was turned continuous at a D=1.4 day^−1. Gas flow and agitation were adjusted in order to minimise acetate and maximise ethanol and 2,3-BDO production. By day 7 the Ethanol:2,3-BDO ratio was less than 5:1 and the gas had reached target CO uptake of between 5-6 mol/L/day. On day 9.6 a sample was taken for gene expression analysis representing stable data without 2-HIBA. […] The results for this analysis indicated very clearly that 2-HIBA interacts with the Branch Chain Amino Acid biosynthesis pathway (BCAA). From the results a mode of action of 2-HIBA was proposed and this is illustrated and described in FIG. 11.

[3] = system: Ketol-acid reductoisomerase IlvC; assay: Inhibition of ketol-acid reductoisomerase; assay type: biochemical, Clostridium autoethanogenum; details: mode of action proposed from gene expression and BCAA data
From the text: The addition of 2-HIBA impacts the metabolism of Clostridium autoethanogenum. […] In native systems the expression and activity of Acetolcatate synthase IlvBN is down regulated by branched chain amino acid synthesis. The addition of 2-HIBA to the fermentation inhibits Ketol-acid recuctoisomerase IlvC, branch chained amino acid biosynthesis, which results in a decrease in the concentration of valine, isoleucine and leucine. As a result, feedback inhibition of the IlvBN enzyme by valine, isoleucine and leucine is removed. This causes an increase in acetolactate production. An increase in the acetolactate pool leads to an overflow of carbon to 2,3-butanediol. The conversion of acetolactate and acetoin to 2,3-BDO are not rate limited, and conversion to 2,3-BDO freely occurs without the need to further up regulate enzymes responsible for the conversion of acetolactate to acetoin and/or the conversion of acetoin to 2,3-BDO.
Ketol-acid reductoisomerase is inhibited by the presence of 2-HIBA. It is considered that other compounds having similar structural characteristics to 2-HIBA and the substrates that the enzyme works on (acetolactate. 2-oxo-3-hydroxyisovalerate and 2,3-dihydroxy-3-methylbutanoate) would have a similar effect on Ketol acid reductoisomerase. […]

[4] = system: Clostridium autoethanogenum; assay: Fermentation of gaseous substrate comprising CO with 2-HIBA: general findings and carbon balance; assay type: cell-based
From the text: Accordingly, the inventors are the first to devise a process for producing high concentrations of 2,3-butanediol through the microbial fermentation of a gaseous substrate comprising CO. In a first stage, a gaseous substrate comprising CO is fed to a bioreactor containing a culture of one or more microorganisms suspending in liquid nutrient media. The gaseous substrate is anaerobically fermented to produce one or more alcohols and/or one or more acids or mixtures thereof. Compounds are provided to the fermentation to alter the metabolite profile of the fermentation.
Carbon balance measurements were performed to confirm the shift to increased 2,3-butanediol production after addition of 2-HIBA.
As the 2-HIBA is not consumed by the fermentation, it is possible to recover 2-HIBA exiting the bioreactor and pass it back to the bioreactor to improve the efficiency of the fermentation.

[5] = 0 mM vs 4.8 mM 2-HIBA addition, down-regulated
[6] = 0 mM vs 4.8 mM 2-HIBA addition, up-regulated

CC(C)(O)C(=O)O [2-HIBA, 2-hydroxyisobutyric acid]
impact on gas uptake ([1]; 0.5 g/L (4.8 mM) 2-HIBA): not to have a detrimental impact on gas uptake | metabolite profile of the fermentation ([1]; 0.5 g/L (4.8 mM) 2-HIBA, FIG. 1): increasing the production of 2,3-butanediol whilst decreasing the production of ethanol, acetate and biomass | 2,3-BDO concentration ([1]; after 0.5 g/L (4.8 mM) 2-HIBA added on day 7.95, increased from 6 g/L): 12 g/L | overall washout rate of 2-HIBA ([1]; matched the bacterial dilution rate): 0.7 day⁻¹ | initial washout rate of 2-HIBA ([1]; similar to the dilution rate): ~1.8 day⁻¹ | log2 fold_change, or1907 Indole-3-glycerol phosphate synthase CDS [2, 5]: −3.042 | log2 fold_change, or2161 Alcohol dehydrogenase CDS [2, 5]: −3.476 | log2 fold_change, or2739 Glutamate synthase (NADPH) CDS [2, 5]: −3.498 | log2 fold_change, or2997 Glycerol dehydrogenase CDS [2, 5]: −4.924 | log2 fold_change, or3075 Glucarate dehydratase CDS [2, 5]: −4.084 | log2 fold_change, or3076 hypothetical protein CDS [2, 5]: −3.469 | log2 fold_change, or3079 Methylglyoxal reductase (NADPH-dependent) CDS [2, 5]: −4.02 | log2 fold_change, or3080 transcriptional regulator, CdaR CDS [2, 5]: −3.947 | log2 fold_change, or1190 2-isopropylmalate synthase CDS [2, 6]: 3.63 | log2 fold_change, or1191 3-isopropylmalate dehydratase large subunit CDS [2, 6]: 3.55 | log2 fold_change, or1193 3-isopropylmalate dehydrogenase CDS [2, 6]: 3.289 | log2 fold_change, or2387 Ketol-acid reductoisomerase CDS [2, 6]: 3.202 | log2 fold_change, or2388 Dihydroxy-acid dehydratase CDS [2, 6]: 2.901 | log2 fold_change, or2389 acetolactate synthase, large subunit, biosynthetic type CDS [2, 6]: 3.255 | log2 fold_change, or2390 acetolactate synthase, small subunit CDS [2, 6]: 3.237 | log2 fold_change, or2461 General substrate transporter CDS [2, 6]: 2.867 | response in metabolites ([2]; 0.5 g/L (4.8 mM) 2-HIBA added on day 10.78): decreasing acetate, ethanol and biomass with increasing 2,3-BDO | Biomass ([2]; Day 12.8-14.0, stable 0.5 g/L HIBA addition, before 4.7): 3.45 g/L | CO uptake ([2]; Day 12.8-14.0, stable 0.5 g/L HIBA addition, before 5.7): 5.1 mol/L/day | effect on Ketol-acid reductoisomerase [3]: inhibited | 2,3-BDO concentration ([4]; 2-HIBA at 0.01 g/L-2.0 g/L (0.096 to 19.2 mM)): significantly increases | ethanol:2,3-BDO ratio ([4]; addition of 2-HIBA): significantly improves | carbon balance ([4]; before and after addition of 2-HIBA, FIG. 14): clear increase in 2,3-butanediol production, accompanied by a decrease in production of ethanol, acetate and biomass | overall fermentation stability ([4]; continuous addition, 0.01 g/L/day-2.0 g/L/day (0.096 to 19.2 mM/day)): without affecting overall fermentation stability
